Assay results published in ChEMBL document CHEMBL1909046, “DrugMatrix in vitro pharmacology data”.
pIC50, pKi: −log10 of the molar value. Where a SMILES comes first, the peptide text is derived from it. Bridges are numbered along the chain shown (N, C = ends). [ ]: non-standard residue; d: D form. The star is where a group is joined. Threoninol(2S,3R) = C[C@@H](O)[C@H](CO)N*

What was measured:
[1] = molecular target: Sodium-dependent noradrenaline transporter (Homo sapiens, UniProt P23975); assay: DRUGMATRIX: Norepinephrine Transporter radioligand binding (ligand: [125I] RTI-55); type: cell membranes, MDCK, Membrane; conditions: Not Active = under 50% inhibition at 10 µM; for pIC50: read-out: IC50; for pKi: read-out: Ki
Chain of Sodium-dependent noradrenaline transporter (P23975 whole entry): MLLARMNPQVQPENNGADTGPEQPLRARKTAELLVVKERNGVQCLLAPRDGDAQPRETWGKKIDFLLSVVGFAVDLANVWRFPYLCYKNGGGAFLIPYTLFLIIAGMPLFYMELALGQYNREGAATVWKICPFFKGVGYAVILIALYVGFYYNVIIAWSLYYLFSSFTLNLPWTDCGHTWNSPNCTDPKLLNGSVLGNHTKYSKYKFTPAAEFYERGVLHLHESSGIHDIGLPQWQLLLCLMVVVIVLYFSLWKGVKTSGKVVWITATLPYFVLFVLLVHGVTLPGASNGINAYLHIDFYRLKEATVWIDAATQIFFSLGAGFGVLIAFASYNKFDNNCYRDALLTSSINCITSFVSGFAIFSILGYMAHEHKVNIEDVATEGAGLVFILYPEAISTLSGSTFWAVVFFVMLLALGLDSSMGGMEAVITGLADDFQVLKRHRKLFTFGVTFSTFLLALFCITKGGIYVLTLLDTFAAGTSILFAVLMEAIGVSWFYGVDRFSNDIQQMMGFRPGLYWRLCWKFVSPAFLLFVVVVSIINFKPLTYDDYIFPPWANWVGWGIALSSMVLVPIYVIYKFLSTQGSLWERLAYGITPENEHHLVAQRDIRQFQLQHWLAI

[2] = molecular target: Carbonic anhydrase 2 (Homo sapiens, UniProt P00918); assay: DRUGMATRIX: Carbonic Anhydrase II enzyme inhibition (substrate: 4-Nitrophenyl acetate (4-NPA)); type: tissue-based, Erythrocyte; conditions: erythrocyte; Not Active = under 50% inhibition at 10 µM
[3] = DRUGMATRIX: Imidazoline I2, Central radioligand binding (ligand: [3H] Idazoxan); type: cell membranes, Rattus norvegicus, Wistar, Cerebral cortex, Membrane; conditions: Not Active = under 50% inhibition at 10 µM
[4] = molecular target: T1, Interstitial collagenase (Homo sapiens, UniProt P03956); assay: biochemical; type: tissue-based, Rheumatoid synovial fibroblasts;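 also: MMP-1 enzyme inhibition assay using a peptide substrate; in other assays of this panel Not Active means under 50% inhibition at 10 µM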
T1 sequence (P03956 whole entry): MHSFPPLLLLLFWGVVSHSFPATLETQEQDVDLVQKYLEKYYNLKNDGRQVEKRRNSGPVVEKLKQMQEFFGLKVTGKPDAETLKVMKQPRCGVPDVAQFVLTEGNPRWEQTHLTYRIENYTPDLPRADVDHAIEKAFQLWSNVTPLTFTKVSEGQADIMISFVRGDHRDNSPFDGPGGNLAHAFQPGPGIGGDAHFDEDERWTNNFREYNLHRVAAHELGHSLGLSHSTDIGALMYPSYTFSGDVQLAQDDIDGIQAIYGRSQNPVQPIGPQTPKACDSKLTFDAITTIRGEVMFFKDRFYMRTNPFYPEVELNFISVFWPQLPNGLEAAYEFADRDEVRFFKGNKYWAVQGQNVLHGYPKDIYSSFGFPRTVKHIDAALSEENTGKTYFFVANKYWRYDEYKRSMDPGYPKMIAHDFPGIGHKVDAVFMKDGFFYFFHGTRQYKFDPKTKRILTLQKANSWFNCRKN

[5] = molecular target: Mitogen-activated protein kinase 3 (Homo sapiens, UniProt P27361); assay: DRUGMATRIX: Protein Serine/Threonine Kinase, ERK1 enzyme inhibition (substrate: Myelin Basic Protein); parameters: species or system Escherichia coli; conditions: Not Active = under 50% inhibition at 10 µM
Chain of Mitogen-activated protein kinase 3 (P27361 whole entry): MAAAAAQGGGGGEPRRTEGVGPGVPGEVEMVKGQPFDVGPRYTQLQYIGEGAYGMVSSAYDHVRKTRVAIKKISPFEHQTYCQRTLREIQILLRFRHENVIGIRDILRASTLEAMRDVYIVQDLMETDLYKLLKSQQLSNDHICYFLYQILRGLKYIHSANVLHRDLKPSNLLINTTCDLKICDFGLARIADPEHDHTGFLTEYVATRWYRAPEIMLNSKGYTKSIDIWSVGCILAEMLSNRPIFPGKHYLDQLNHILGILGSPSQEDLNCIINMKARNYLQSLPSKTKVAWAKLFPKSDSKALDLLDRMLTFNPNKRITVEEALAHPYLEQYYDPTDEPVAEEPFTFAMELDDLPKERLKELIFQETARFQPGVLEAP

[6] = molecular target: Mitogen-activated protein kinase 1 (Homo sapiens, UniProt P28482); assay: DRUGMATRIX: Protein Serine/Threonine Kinase, ERK2 enzyme inhibition (substrate: Myelin Basic Protein); parameters: species or system Escherichia coli; conditions: Not Active = under 50% inhibition at 10 µM
Chain of Mitogen-activated protein kinase 1 (P28482 whole entry): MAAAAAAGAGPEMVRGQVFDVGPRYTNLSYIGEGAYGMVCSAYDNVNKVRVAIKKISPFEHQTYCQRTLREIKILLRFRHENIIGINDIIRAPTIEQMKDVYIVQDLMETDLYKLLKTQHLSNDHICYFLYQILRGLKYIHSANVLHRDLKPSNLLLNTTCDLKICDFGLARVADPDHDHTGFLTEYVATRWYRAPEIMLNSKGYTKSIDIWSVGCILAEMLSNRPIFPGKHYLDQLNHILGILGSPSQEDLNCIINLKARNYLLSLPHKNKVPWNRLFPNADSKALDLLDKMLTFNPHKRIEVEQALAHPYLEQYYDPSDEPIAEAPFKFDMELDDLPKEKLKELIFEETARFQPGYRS

[7] = molecular target: T2, 5-hydroxytryptamine receptor 1A (Rattus norvegicus, UniProt P19327); type: cell membranes, Membrane; conditions: cho-k1; also: in other assays of this panel Not Active means under 50% inhibition at 10 µM
T2 sequence (P19327 whole entry): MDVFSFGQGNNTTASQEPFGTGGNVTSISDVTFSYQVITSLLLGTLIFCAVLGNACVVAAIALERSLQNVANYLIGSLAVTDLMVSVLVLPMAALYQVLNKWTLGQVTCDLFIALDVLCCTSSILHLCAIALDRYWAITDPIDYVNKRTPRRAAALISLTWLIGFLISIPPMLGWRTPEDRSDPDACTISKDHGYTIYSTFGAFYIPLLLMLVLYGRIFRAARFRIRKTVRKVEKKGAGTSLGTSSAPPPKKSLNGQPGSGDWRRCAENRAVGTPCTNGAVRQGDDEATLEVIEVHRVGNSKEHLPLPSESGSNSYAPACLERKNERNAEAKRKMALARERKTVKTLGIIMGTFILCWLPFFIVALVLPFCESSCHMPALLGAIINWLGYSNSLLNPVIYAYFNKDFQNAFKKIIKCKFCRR

[8] = molecular target: T3, Estrogen receptor (Homo sapiens, UniProt P03372); conditions: sf9; also: in other assays of this panel Not Active means under 50% inhibition at 10 µM
T3 sequence (P03372 whole entry): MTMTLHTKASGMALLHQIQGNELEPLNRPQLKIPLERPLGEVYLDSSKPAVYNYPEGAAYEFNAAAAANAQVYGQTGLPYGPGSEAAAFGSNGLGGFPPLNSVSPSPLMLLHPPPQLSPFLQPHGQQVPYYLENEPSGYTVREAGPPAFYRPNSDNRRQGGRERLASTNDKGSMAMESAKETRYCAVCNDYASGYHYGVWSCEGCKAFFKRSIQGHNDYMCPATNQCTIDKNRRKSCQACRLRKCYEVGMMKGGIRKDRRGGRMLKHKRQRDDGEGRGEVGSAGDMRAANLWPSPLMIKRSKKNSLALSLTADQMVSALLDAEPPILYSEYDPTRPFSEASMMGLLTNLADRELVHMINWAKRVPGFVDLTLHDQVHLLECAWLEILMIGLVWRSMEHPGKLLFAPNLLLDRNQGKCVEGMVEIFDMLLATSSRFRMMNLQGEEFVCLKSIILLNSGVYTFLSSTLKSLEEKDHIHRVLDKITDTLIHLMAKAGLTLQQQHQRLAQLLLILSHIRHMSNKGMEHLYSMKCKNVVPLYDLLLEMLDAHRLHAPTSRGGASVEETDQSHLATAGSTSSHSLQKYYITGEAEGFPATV

SMILES | IC50 ([1]; mdck) | IC50 [2] | IC50 [3] | Ki [3] | IC50 [4] | IC50 [5] | IC50 [6] | IC50 [7] | IC50 [8] | pIC50 [1] | pKi [1] | Ki ([1]; mdck) | Ki [2] | Ki [4] | Ki [5] | Ki [6] | Ki [7] | Ki [8]
COc1ccccc1C(=O)N1CCC(Cc2ccccc2)CC1 | Not Active | Not Active | Not Active | Not Active | Not Active | Not Active | Not Active | Not Active | Not Active |  |  |  |  |  |  |  |  | 
Cc1ccccc1C(=O)N1CCC(Cc2ccccc2)CC1 | Not Active | Not Active | Not Active | Not Active | Not Active | Not Active | Not Active | Not Active | Not Active |  |  |  |  |  |  |  |  | 
N=C(Nc1ccccc1)Nc1ccccc1 |  | Not Active | Not Active | Not Active | Not Active | Not Active | Not Active | Not Active | Not Active | 5.94 | 5.94 |  |  |  |  |  |  | 
C[C@@H](O)[C@H](CO)NC(=O)[C@@H]1CSSC[C@H](NC(=O)[C@H](N)Cc2ccccc2)C(=O)N[C@@H](Cc2ccccc2)C(=O)N[C@H](Cc2c[nH]c3ccccc23)C(=O)N[C@@H](CCCCN)C(=O)N[C@@H]([C@@H](C)O)C(=O)N1 (H-[dF]CF[dW]KTC-{Threoninol(2S,3R)}; disulfide 2-7) | Not Active | Not Active | Not Active | Not Active | Not Active | Not Active | Not Active | Not Active | Not Active |  |  |  |  |  |  |  |  | 
S=C=Nc1cccc2ccccc12 [1-NAPHTHYLISOTHIOCYANATE] | Not Active | Not Active | Not Active | Not Active | Not Active | Not Active | Not Active | Not Active | Not Active |  |  |  |  |  |  |  |  | 
C[C@](O)(CS(=O)(=O)c1ccc(F)cc1)C(=O)Nc1ccc(C#N)c(C(F)(F)F)c1 [(R)-BICALUTAMIDE] |  | Not Active | Not Active | Not Active | Not Active | Not Active | Not Active | Not Active | Not Active |  |  |  |  |  |  |  |  | 
CCCC(=O)Nc1ccc(OCC(O)CNC(C)C)c(C(C)=O)c1 (stereo not given) [ACEBUTOLOL] | Not Active | Not Active | Not Active | Not Active | Not Active | Not Active | Not Active | Not Active | Not Active |  |  |  |  |  |  |  |  | 
COc1cc2c(c3oc(=O)c4c(c13)CCC4=O)[C@@H]1C=CO[C@@H]1O2 [AFLATOXIN] | Not Active | Not Active | Not Active | Not Active | Not Active | Not Active | Not Active | Not Active | Not Active |  |  | Not Active | Not Active | Not Active | Not Active | Not Active | Not Active | Not Active
N=C(N)NC(=O)c1nc(Cl)c(N)nc1N [AMILORIDE] | Not Active | Not Active | Not Active | Not Active | Not Active | Not Active | Not Active | Not Active | Not Active |  |  |  |  |  |  |  |  | 
Cc1cc(=O)n(-c2ccccc2)n1C [ANTIPYRINE] | Not Active | Not Active | Not Active | Not Active | Not Active | Not Active | Not Active | Not Active | Not Active |  |  |  |  |  |  |  |  | 
CN1C(=O)COc2c(C(=O)NC3CN4CCC3CC4)cc(Cl)cc21 (stereo not given) [AZASETRON] | Not Active | Not Active | Not Active | Not Active | Not Active | Not Active | Not Active | Not Active | Not Active |  |  |  |  |  |  |  |  | 
C[C@H]1C[C@H]2[C@@H]3CCC4=CC(=O)C=C[C@]4(C)[C@@]3(Cl)[C@@H](O)C[C@]2(C)[C@@]1(O)C(=O)CO [BECLOMETHASONE] | Not Active | Not Active | Not Active | Not Active | Not Active | Not Active | Not Active | Not Active | Not Active |  |  |  |  |  |  |  |  | 
Nc1c(CC(=O)O)cccc1C(=O)c1ccc(Br)cc1 [BROMFENAC] | Not Active | Not Active | Not Active | Not Active | Not Active | Not Active | Not Active | Not Active | Not Active |  |  |  |  |  |  |  |  | 
CCCCN1CCCCC1C(=O)Nc1c(C)cccc1C.Cl (stereo not given) [BUPIVACAINE HYDROCHLORIDE] | Not Active | Not Active | Not Active | Not Active | Not Active | Not Active | Not Active | Not Active | Not Active |  |  |  |  |  |  |  |  | 
C[C@@]12C(=O)OC(=O)[C@]1(C)[C@H]1CC[C@@H]2O1 [CANTHARIDIN] | Not Active | Not Active | Not Active | Not Active | Not Active | Not Active | Not Active | Not Active | Not Active |  |  |  |  |  |  |  |  | 
O=NN(CCCl)C(=O)NCCCl [CARMUSTINE] | Not Active | Not Active | Not Active | Not Active | Not Active | Not Active | Not Active | Not Active | Not Active |  |  |  |  |  |  |  |  | 
C#C[C@]1(O)CC[C@H]2[C@@H]3CCc4cc(OC)ccc4[C@H]3CC[C@@]21C [MESTRANOL] |  | Not Active | Not Active | Not Active | Not Active | Not Active | Not Active | Not Active |  | 5.86 | 5.86 |  |  |  |  |  |  | 
COc1ccc2cc([C@H](C)C(=O)O)ccc2c1 [NAPROXEN] | Not Active | Not Active | Not Active | Not Active | Not Active | Not Active | Not Active | Not Active |  |  |  |  |  |  |  |  |  | 
C#C[C@]1(OC(C)=O)CC[C@H]2[C@@H]3CCC4=CC(=O)CC[C@@H]4[C@H]3CC[C@@]21C [NORETHINDRONE ACETATE] | Not Active | Not Active | Not Active | Not Active | Not Active | Not Active | Not Active | Not Active |  |  |  |  |  |  |  |  |  | 
O=C(C1CCCCC1)N1CC(=O)N2CCc3ccccc3C2C1 (stereo not given) [PRAZIQUANTEL] | Not Active | Not Active | Not Active | Not Active | Not Active | Not Active | Not Active | Not Active |  |  |  |  |  |  |  |  |  | 
CCN(CC)CCOC(=O)c1ccc(N)cc1 [PROCAINE] | Not Active | Not Active | Not Active | Not Active | Not Active | Not Active | Not Active | Not Active |  |  |  |  |  |  |  |  |  | 
CCCN(CCC)C(=O)C(CCC(=O)O)NC(=O)c1ccccc1 (stereo not given) [PROGLUMIDE] | Not Active | Not Active | Not Active | Not Active | Not Active | Not Active | Not Active | Not Active |  |  |  |  |  |  |  |  |  | 
